Entries after “also recorded” stand apart in the source; their conditions may differ.

Data set [1] concerns pulmonary carcinoma A549. The data set can be described thus: COMET test (DNA fragmentation). The following applies: concentrations from 5 to 50 μM, with respect to standard K. Type of data set: cell-based. An excerpt:
These latter data are mainly affected by the fact that this technique is not able to detect dead cells, and, in case of compounds of Formulas I and III, such percentage, as previously seen, is relevant.

The subject of data set [2] is pulmonary carcinoma A549. Briefly: MTT test on pulmonary carcinoma A549 cell line. Type of data set: cell-based. The following applies: for efficacy: A549; for efficacy compared with Endoxan (cyclophosphamide): A549, various concentrations. The source says:
(§1) Cellular vitality tests have been performed by using the derivatives of Formulas VII, I and III on due ovary carcinoma lines (SKOV-3 and A2774), two mammary carcinoma lines (MCF-7 and MDAMB-231) and two pulmonary carcinoma lines (H727 and A549). The compounds of Formulas I and III have further been tested in liposomal nanoparticles (NP) in comparison with the pulmonary carcinoma lines H727. The pulmonary carcinoma lines have been used also as target for determining the genotoxicity of the compounds of Formulas I and III, for determining the type of cellular death, through flow cytometry analyses, and for a preliminary analysis in vivo with toxicity determination and pharmacy-kinetics estimation (compound from Formula I).
(§2) The derivatives of Formulas I and III have been used for a series of MTT tests at different concentrations, as such or from a formulation of lipid nanoparticles (NP), using cellular lines deriving from pulmonary carcinoma H727.
(§3) A series of MTT tests have been performed by using the derivatives of Formulas VI, VIII, II and IV (such compounds can be considered as possible fragments of the macrocycles of Formulas V, VII, I and III). […] The results of these MTT tests show how the cytotoxic activity of the compounds of the invention has to be ascribed to the complete structure of the macrocycle having the acetyl function and not to any isolated component thereof.
In general terms: Tetrazolium assays rely on reduction of a dye to a coloured formazan, in cell work by metabolically active cells.

A further data set has as its system ovary carcinoma A2774. The data set can be described thus: MTT test on ovary carcinoma A2774 cell line. It counts as cell-based.
Description: as §1
(§4) The macrocycles of Formulas VII, I and III have been used in MTT tests on cellular lines derive from ovary carcinoma. […] The selectivity shown by the derivative of Formula I compared with a specific cellular line surely needs to be further analyzed as regards its operating mechanism.

Another data set concerns ovary carcinoma SKOV-3. The data set can be described thus: MTT test on ovary carcinoma SKOV-3 cell line. It counts as cell-based. The following applies: for EC50: Homo sapiens, SK-OV-3, SKOV-3; for activity: SKOV-3, fragments.
Description: as §1, §4, §3

The subject of data set [3] is mammary carcinoma MDAMB-231. Briefly: MTT test on mammary carcinoma MDAMB-231 cell line. It counts as cell-based. The following applies: Homo sapiens, MDA-MB-231.
Description: as §1
(§5) In particular, for both tumor cellular lines, the derivatives of Formulas I and III have EC50 of about 20 μM, while the derivative of Formula VII has a EC50 included between 20 and 30 μM, as shown in the graphs in FIG. 3 and FIG. 4.

The subject of the next data set is mammary carcinoma MCF-7. Briefly: MTT test on mammary carcinoma MCF-7 cell line. Type of data set: cell-based. The following applies: Homo sapiens, MCF7.
Description: as §1, §5

In data set [4] the test system is pulmonary carcinoma A549. The data set can be described thus: Flow cytometry analysis of type of cellular death. Type of data set: cell-based.
Description: as §1
The cellular lines A549 treated with the compound of Formula I show 38.80% of apoptosis (9.05% early apoptosis and 29.75% late apoptosis) compared with a 9.30% of necrosis. The same cells treated with the compound of Formula III show 23.45% of total apoptosis (10.25% early apoptosis and 13.20% late apoptosis) against 4.75% of necrosis.
A general note: Flow cytometry measures light scatter and fluorescence of single cells or particles in a stream.

Another data set has as its system pulmonary carcinoma H727. The data set can be described thus: MTT test on pulmonary carcinoma H727 cell line. It counts as cell-based. The following applies: H727, different concentrations, as such or in lipid nanoparticles (NP).
Description: as §1, §2

For data set [5] the following is noted: mouse, in vivo. An excerpt:
(§6) A preliminary analysis for the toxicity in vivo has been performed by using the compound of Formula I on NJ mice. Due to the particularly hydrophobic nature of such derivative, after various attempts to determine the best solvent mixture, which is non-toxic for the animal, but which contains an adequate concentration of receptor, it has been decided to administer the compound using a mixture containing 10% of DMSO in olive oil. […] After 5 days, the mouse has been sacrificed and, through a HPLC/Mass analysis, the distribution of the compound inside the different compartments has been determined. The different tissues/organs (back sub-skin, spleen, omentum, heart, liver, brain, lung and kidney) have been removed, homogenized and analyzed. A high concentration of the compound of Formula I (determined through the computation of the peak area at m/z 546.31), corresponding to the analyzed compound [M-H]^−), has been observed in the injection site (Area 532.875) and in the spleen (Area 196.233), but the biggest amount has been discovered in the omentum (Area 1.237.999). Lower concentrations have been discovered in the kidney (Area 120.117), in the lung (Area 32.514) and in the heart (Area 29.443). A minimum amount of the compound has been detected in the liver (Area 11.293).

For a further data set, the system named is NJ mice. The following applies: in vivo.
Description: as §6

Data set [6] relates to DNA of pulmonary carcinoma A549 cells. The data set can be described thus: Receptor-DNA adducts through 32P marking. The following applies: A549, butanol enrichment. It counts as cell-based.
The next data set addresses extrogen receptor GPER (Homo sapiens, UniProt Q99527). The following applies: literature; cited from earlier work.
The conditions of data set [7]: literature; cited from earlier work.

Chain of extrogen receptor GPER (Q99527 whole entry): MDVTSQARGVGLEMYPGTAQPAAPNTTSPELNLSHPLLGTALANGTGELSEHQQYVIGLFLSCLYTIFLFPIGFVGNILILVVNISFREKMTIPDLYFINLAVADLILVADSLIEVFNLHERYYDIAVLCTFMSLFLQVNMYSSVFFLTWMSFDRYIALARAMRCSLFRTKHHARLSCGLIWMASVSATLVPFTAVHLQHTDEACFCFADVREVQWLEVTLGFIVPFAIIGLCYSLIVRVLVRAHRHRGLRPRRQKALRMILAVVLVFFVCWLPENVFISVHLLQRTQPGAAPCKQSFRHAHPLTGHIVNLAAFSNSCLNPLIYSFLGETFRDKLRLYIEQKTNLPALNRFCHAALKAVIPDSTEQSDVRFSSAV

`CC1(C)c2ccc([nH]2)C(C)(C)c2ccc([nH]2)C(C)(c2ccc(N)cc2)c2ccc([nH]2)C(C)(C)c2ccc1[nH]2` [Formula V]: the “fragmentation of DNA” value with pulmonary carcinoma A549 [1] is recorded as “a fragmentation is observed”. Moreover, the efficacy result in the data set with pulmonary carcinoma A549 [2] is given as “seem not show any efficacy”.

As to `CC(=O)Nc1ccc(C(C)(c2ccc[nH]2)c2ccc[nH]2)cc1` [Formula II], the efficacy entry with pulmonary carcinoma A549 [2] was “have not shown any activity”.

`CC1(C)c2ccc([nH]2)C(C)(C)c2ccc([nH]2)C(C)(c2cccc(N)c2)c2ccc([nH]2)C(C)(C)c2ccc1[nH]2` [Formula VII]: in the data set with ovary carcinoma A2774, the activity entry is on record as “has not shown any activity”. Further, the “fragmentation of DNA” value with pulmonary carcinoma A549 [1] is reported as “a fragmentation is observed”. The EC50 – broadly, the concentration that produces a half-maximal response – is roughly 15 µM with ovary carcinoma SKOV-3, 20 to 30 µM in [3] and 20 to 30 µM in the data set on mammary carcinoma MCF-7. Also, in the data set on pulmonary carcinoma A549 [2], the efficacy result is given as “seem not show any efficacy”.

On to `CC(c1cccc(N)c1)(c1ccc[nH]1)c1ccc[nH]1` [Formula VIII], for which the activity result in the data set with ovary carcinoma SKOV-3 was “inefficient”.

As to `CC(c1ccc(N)cc1)(c1ccc[nH]1)c1ccc[nH]1` [Formula VI], in the data set on ovary carcinoma SKOV-3, the activity entry was “inefficient”.

In turn, `CC(=O)Nc1ccc(C2(C)c3ccc([nH]3)C(C)(C)c3ccc([nH]3)C(C)(C)c3ccc([nH]3)C(C)(C)c3ccc2[nH]3)cc1` [Formula I] gave an EC50 in the data set on ovary carcinoma A2774 of roughly 15 µM. The “fragmentation of DNA” value in the data set on pulmonary carcinoma A549 [1] is reported as “have not given any fragmentation of DNA”. Also, in the data set on pulmonary carcinoma A549 [4], the early apoptosis was determined as 9.05%, the late apoptosis turned out to be 29.75%, the main death mechanism result is on record as “apoptosis is the main death mechanism” and the necrosis was found to be 9.30%. This compound also had a total apoptosis in the data set with pulmonary carcinoma A549 [4] of 38.80%. In the data set on ovary carcinoma SKOV-3, the EC50 fell in the range of 1 to 5 µM. Further, the “efficacy (cellular vitality)” value in the data set on pulmonary carcinoma H727 is listed as “maximum efficacy already at the lowest doses being used (5 μM)”. The 50% effective concentration (EC50) in [3] is roughly 20 µM. Moreover, the “efficacy compared with Endoxan (cyclophosphamide)” value in the data set on pulmonary carcinoma A549 [2] is recorded as “even more efficient than the known chemotherapeutic drug Endoxan”. For the same compound, in the data set with mammary carcinoma MCF-7, the EC50 was roughly 20 µM. In data set [5] (NJ, 5 days), the “peak area in the brain” value is given as 7.735, the “peak area in the heart” value was 29.443, the “peak area in the injection site” value came out at 532.875 and the “peak area in the kidney” value came out at 120.117. Also, in data set [5] (NJ, 5 days), the “peak area in the liver” value is recorded as 11.293, the “peak area in the lung” value is reported as 32.514 and the “peak area in the spleen” value came to 196.233. Also, the “passing the hematic-encephalic barrier” value in data set [5] is “actually capable of passing the hematic-encephalic barrier”. Further, in the data set with NJ mice (sc, 5 mg/kg), the “effects on the mouse” value was “without discovering particular effects on the mouse”. In the data set with NJ mice (mouse, ip), the “effect on the animal” value is reported as “has not show any apparent effect on the animal”. Further, the “adducts with DNA / genotoxicity” value in [6] is given as “adducts with DNA have been identified”.

Consider `CC(=O)Nc1cccc(C(C)(c2ccc[nH]2)c2ccc[nH]2)c1` [Formula IV], for which, in the data set with pulmonary carcinoma A549 [2], the efficacy result is “have not shown any activity”.

For `CC(=O)Nc1cccc(C2(C)c3ccc([nH]3)C(C)(C)c3ccc([nH]3)C(C)(C)c3ccc([nH]3)C(C)(C)c3ccc2[nH]3)c1` [Formula III], the EC50 with ovary carcinoma A2774 was roughly 15 µM. Moreover, in the data set with pulmonary carcinoma A549 [1], the “fragmentation of DNA” value is recorded as “have not given any fragmentation of DNA”. In addition, in the data set on pulmonary carcinoma A549 [4], the early apoptosis stood at 10.25%, the late apoptosis was determined as 13.20%, the main death mechanism result is on record as “apoptosis is the main death mechanism” and the necrosis is listed as 4.75%. In addition, in the data set with pulmonary carcinoma A549 [4], the total apoptosis amounted to 23.45%. This compound also had an EC50 with ovary carcinoma SKOV-3 of roughly 15 µM. Moreover, in the data set with pulmonary carcinoma H727, the “efficacy (cellular vitality)” value is reported as “maximum efficacy already at the lowest doses being used (5 μM)”. The EC50 in data set [3] is roughly 20 µM. In the data set on pulmonary carcinoma A549 [2], the “efficacy compared with Endoxan (cyclophosphamide)” value was “even more efficient than the known chemotherapeutic drug Endoxan”. The EC50 in the data set on mammary carcinoma MCF-7 is roughly 20 µM. Besides, in data set [6], the “adducts with DNA / genotoxicity” value was “adducts with DNA have been identified; also recorded: higher genotoxicity of the compound of Formula III with respect to the derivative of Formula I”.

`CC1(C)c2ccc([nH]2)C(C)(C)c2ccc([nH]2)C(C)(C)c2ccc([nH]2)C(C)(C)c2ccc1[nH]2` [meso-octametil-calix[4]pyrrole]: on extrogen receptor GPER, the GPER inhibition entry is “selective inhibitor of the extrogen receptor GPER”. Besides, the cytotoxicity entry in [7] is on record as “has not appeared as cytotoxic”.

The values above are taken from US10799480B2, “Calixpyrrole-based antitumor compounds” (Giam Pharma International sarl, priority 2016, dated 2020).
